Some test systems named below: 786-0; A498; CCRF-CEM; COLO 205; HCT-116; HCT-15; HL-60; HT-29; IGROV-1; KM12; LOX IMVI; NCI-H460; NCI-H522; RXF 393; SF-268; SF-295; SK-MEL-2; SK-OV-3; SN12C; UACC-62.
Common to all, as to assay: NCI anticancer screen, dose series, 48 h

The structures appear in SMILES notation.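 Assay format: 96-well plates, 48-hour exposure. The concentration for 50% growth inhibition is given as GI50.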 Activity calls are given as the source filed them. No stated cut-off is given here; in the data, active = GI50 up to about 1.1 µM and inactive = higher.

Consider `CCCCCCCCCCCCOCCCOP(=O)([O-])OCC[N+](C)(C)C`, for which the GI50 was 10.8 µM (inactive) in the test with 786-0; 30 µM (inactive) in the test with A498; 21.1 µM (inactive) in the test with CCRF-CEM; 6.75 µM (inactive) in the test with COLO 205; 26.4 µM (inactive) with HCT-116; 25.6 µM in the test on HCT-15. Besides, the GI50 was 7.21 µM (inactive) with HL-60; 17.3 µM (inactive) in the test on HT-29; 6.14 µM (inactive) in the test on IGROV-1; 2.95 µM (inactive) in the test on KM12; 32.2 µM (inactive) with LOX IMVI; 13.9 µM (inactive) in the test with NCI-H460. In addition, the GI50 in the test with NCI-H522 was 22.7 µM (inactive); with RXF 393, 9.75 µM (inactive); in the test on SF-268, 30.3 µM (inactive); in the test with SF-295, 35.5 µM (inactive); with SK-MEL-2, 43.5 µM (inactive); in the test on SK-OV-3 it was 50.8 µM (inactive). Moreover, the GI50 with SN12C was 28.5 µM (inactive); with UACC-62 it was 28.1 µM (inactive).

As to `N#Cc1nc(COCCOCc2ccc(F)cc2)oc1N`, the GI50 in the test with 786-0 is > 100 µM (inactive); in the test with A498 it was > 100 µM (inactive); in the test on CCRF-CEM, 64.6 µM (inactive); in the test with COLO 205, > 100 µM (inactive); in the test on HCT-116 it was > 100 µM (inactive); in the test with HCT-15 it was above 100 µM. Further, the GI50 in the test on HL-60, in the test on HT-29, with IGROV-1, in the test with KM12, in the test on LOX IMVI and in the test with NCI-H460 was > 100 µM (inactive) in each case. In addition, the GI50 was 29 µM (inactive) in the test with NCI-H522; > 100 µM (inactive) in the test with RXF 393; > 100 µM (inactive) in the test on SF-268; > 100 µM (inactive) in the test on SF-295; > 100 µM (inactive) with SK-MEL-2; > 100 µM (inactive) in the test with SK-OV-3. Further, the GI50 with SN12C and with UACC-62 was > 100 µM (inactive) in each case.

For `Cc1ccc(Oc2ccc(C(=O)c3cccc(C(=O)c4ccc(Oc5ccc(C)cc5)cc4)n3)cc2)cc1`, the GI50 with 786-0 was > 100 µM (inactive); in the test on A498, > 100 µM (inactive); with CCRF-CEM it was > 100 µM (inactive); in the test on COLO 205, > 100 µM (inactive); with HCT-116, > 100 µM (inactive); with HCT-15 it was above 100 µM. Further, the GI50 in the test with HL-60, in the test on HT-29, with IGROV-1, in the test on KM12, in the test on LOX IMVI and in the test with NCI-H460 was > 100 µM (inactive) each time. The GI50 with NCI-H522, with RXF 393, in the test on SF-268, in the test on SF-295, in the test with SK-MEL-2 and in the test on SK-OV-3 was > 100 µM (inactive) each time. The GI50 with SN12C and in the test with UACC-62 was > 100 µM (inactive) throughout.

Turning to `NC(=S)NNC(=O)CCC(=O)Nc1ccc(Cl)cc1Cl`, the GI50 with 786-0 was > 100 µM (inactive); with A498 it was > 100 µM (inactive); with CCRF-CEM, > 100 µM (inactive); in the test on COLO 205, > 100 µM (inactive); with HCT-116, > 100 µM (inactive); in the test on HCT-15 it was 50.4 µM. Besides, the GI50 was > 100 µM (inactive) in the test with HL-60; > 100 µM (inactive) in the test on HT-29; > 100 µM (inactive) in the test with IGROV-1; > 100 µM (inactive) with KM12; 66.8 µM (inactive) in the test with LOX IMVI; > 100 µM (inactive) in the test with NCI-H460. For the same molecule, the GI50 is > 100 µM (inactive) with NCI-H522; > 100 µM (inactive) in the test with RXF 393; > 100 µM (inactive) with SF-268; > 100 µM (inactive) in the test on SF-295; 42.9 µM (inactive) in the test on SK-MEL-2; > 100 µM (inactive) with SK-OV-3. In addition, the results for the GI50 in the test with SN12C and with UACC-62 were > 100 µM (inactive) and 29.9 µM (inactive), respectively.

On to `CC(=O)OCCOCn1cnc2c(Cl)nc(Cl)nc21`, for which the GI50 was 21.4 µM (inactive) in the test with 786-0; 32.2 µM (inactive) in the test with A498; 6.37 µM (inactive) with CCRF-CEM; 18.6 µM (inactive) with COLO 205; 18.2 µM (inactive) in the test on HCT-116; 3.64 µM with HCT-15. Moreover, the GI50 is 2.65 µM (inactive) in the test on HL-60; 15.4 µM (inactive) with HT-29; 14.3 µM (inactive) in the test on IGROV-1; 18.2 µM (inactive) in the test on KM12; 4.3 µM (inactive) with LOX IMVI; 18.5 µM (inactive) in the test with NCI-H460. Besides, the GI50 is 2.05 µM (inactive) with NCI-H522; > 10 µM (inactive) in the test on RXF 393; 17.9 µM (inactive) in the test with SF-268; > 10 µM (inactive) in the test on SF-295; 22.3 µM (inactive) in the test on SK-MEL-2; > 10 µM (inactive) with SK-OV-3. The GI50 in the test on SN12C is 18.5 µM (inactive); with UACC-62, 16.1 µM (inactive).

Turning to `CSC1(SC2=NCCN2)SC2(NCCN2)S1`, the GI50 is 3.86 µM (inactive) in the test with 786-0; 12.6 µM (inactive) in the test with A498; 1.21 µM (inactive) in the test with CCRF-CEM; 21.3 µM (inactive) in the test on COLO 205; 17 µM (inactive) with HCT-116; 17.7 µM in the test with HCT-15. For the same molecule, the GI50 is 21 µM (inactive) in the test on HL-60; 18.7 µM (inactive) in the test on HT-29; 18.6 µM (inactive) with IGROV-1; 2.3 µM (inactive) in the test on KM12; 10.5 µM (inactive) in the test on LOX IMVI; 20.5 µM (inactive) with NCI-H460. Besides, the GI50 in the test with NCI-H522 was 11.8 µM (inactive); in the test on RXF 393, 7.53 µM (inactive); with SF-268, 18.2 µM (inactive); in the test on SF-295, 27.8 µM (inactive); in the test with SK-MEL-2, 19.2 µM (inactive); in the test on SK-OV-3, 21.6 µM (inactive). For the same molecule, the GI50 in the test with SN12C is 20.7 µM (inactive); in the test on UACC-62, 16.9 µM (inactive).

As to `Oc1ccc(/C=N/c2ccccc2O)cc1`, the GI50 was 23.3 µM (inactive) in the test with 786-0; > 100 µM (inactive) in the test with A498; 44.7 µM (inactive) in the test with CCRF-CEM; 30.2 µM (inactive) with COLO 205; 50.1 µM (inactive) with HCT-116; 21.3 µM in the test with HCT-15. In addition, the GI50 was 12.7 µM (inactive) in the test on HL-60; 69 µM (inactive) with HT-29; 54.7 µM (inactive) in the test on IGROV-1; 75.3 µM (inactive) in the test on KM12; 26.1 µM (inactive) in the test with LOX IMVI; 38.9 µM (inactive) in the test on NCI-H460. For the same molecule, the GI50 with NCI-H522 was 29.3 µM (inactive); in the test on RXF 393 it was > 100 µM (inactive); in the test on SF-268 it was 96.6 µM (inactive); in the test on SF-295 it was 52.2 µM (inactive); in the test with SK-MEL-2, 21.9 µM (inactive); in the test with SK-OV-3, > 100 µM (inactive). Moreover, the GI50 in the test with SN12C was > 100 µM (inactive); with UACC-62, 37.5 µM (inactive).

As to `O=C(CCc1cccc(O)c1)NCCCNC(=O)CCc1cccc(O)c1`, the GI50 was > 100 µM (inactive) in the test on 786-0; > 100 µM (inactive) in the test with A498; > 100 µM (inactive) in the test with CCRF-CEM; > 100 µM (inactive) in the test with COLO 205; > 100 µM (inactive) in the test with HCT-116; above 100 µM in the test with HCT-15. Also, the GI50 was < 0.01 µM (active) in the test with HL-60; > 100 µM (inactive) in the test on HT-29; > 100 µM (inactive) in the test on IGROV-1; > 100 µM (inactive) in the test with KM12; > 100 µM (inactive) in the test with LOX IMVI; > 100 µM (inactive) in the test with NCI-H460. In addition, the GI50 with NCI-H522, with RXF 393, in the test with SF-268, in the test with SF-295, in the test with SK-MEL-2 and with SK-OV-3 was > 100 µM (inactive) throughout. For the same molecule, the GI50 in the test on SN12C and in the test on UACC-62 was > 100 µM (inactive) each time.

For `O=C1C2C3CC(C4C5C=CC(C5)C34)C2C2C3CC(C12)C1C2C=CC(C2)C31` (stereo not given), the GI50 was > 100 µM (inactive) in the test with 786-0; > 100 µM (inactive) in the test with A498; 61.4 µM (inactive) in the test on CCRF-CEM; > 100 µM (inactive) with COLO 205; > 100 µM (inactive) in the test on HCT-116; above 100 µM in the test with HCT-15. The GI50 was 75.2 µM (inactive) in the test with HL-60; > 100 µM (inactive) with HT-29; > 100 µM (inactive) in the test on IGROV-1; > 100 µM (inactive) with KM12; 28.8 µM (inactive) in the test with LOX IMVI; 26.8 µM (inactive) in the test on NCI-H460. The GI50 in the test with NCI-H522 was > 100 µM (inactive); in the test on RXF 393 it was > 100 µM (inactive); in the test on SF-268, 90.8 µM (inactive); in the test with SF-295, > 100 µM (inactive); with SK-MEL-2 it was > 100 µM (inactive); with SK-OV-3, > 100 µM (inactive). Further, the GI50 with SN12C and with UACC-62 was > 100 µM (inactive) throughout.

As for `c1ccc(-c2ccc(-c3ccc(C4=NCCN4)cc3)o2)cc1`, the GI50 is 1.68 µM (inactive) with 786-0; 1.76 µM (inactive) with A498; 1.56 µM (inactive) with CCRF-CEM; 1.73 µM (inactive) in the test on COLO 205; 1.77 µM (inactive) in the test with HCT-116; 1.87 µM in the test on HCT-15. Moreover, the GI50 in the test with HL-60 is 1.79 µM (inactive); in the test with HT-29, 1.77 µM (inactive); in the test with IGROV-1, 2.74 µM (inactive); in the test on KM12 it was 1.92 µM (inactive); in the test on LOX IMVI, 1.93 µM (inactive); in the test on NCI-H460, 2.4 µM (inactive). The GI50 in the test on NCI-H522 is 2.02 µM (inactive); in the test on RXF 393 it was 2.56 µM (inactive); with SF-268, 2.8 µM (inactive); in the test on SF-295, 1.92 µM (inactive); with SK-MEL-2, 1.87 µM (inactive); with SK-OV-3 it was 5.36 µM (inactive). The GI50 is 2.99 µM (inactive) in the test with SN12C and 1.77 µM (inactive) in the test with UACC-62.

The values above are taken from ChEMBL document CHEMBL1201862, “PubChem BioAssay data set” (2004).
